The record followed here is patent US12600710B2, “Beta-catenin and b-cell lymphoma 9 (BCL9) inhibitors” (H. LEE MOFFITT CANCER CENTER AND RESEARCH INSTITUTE, INC., priority 2018, dated 2026).

In general, Ki refers to a measure of affinity in units of concentration, obtained from inhibition or displacement.

The target in this assay is T1, β-catenin/BCL9 PPI (Homo sapiens, UniProt P35222).
T1 construct: Wild-type full-length β-catenin were cloned into a pET-28b vector carrying a C-terminal 6×histidine; made in house; host or cells: Escherichia coli BL21 DE3 (β-catenin); BCL9 peptide chemically synthesized
T1 sequence (P35222 1-781): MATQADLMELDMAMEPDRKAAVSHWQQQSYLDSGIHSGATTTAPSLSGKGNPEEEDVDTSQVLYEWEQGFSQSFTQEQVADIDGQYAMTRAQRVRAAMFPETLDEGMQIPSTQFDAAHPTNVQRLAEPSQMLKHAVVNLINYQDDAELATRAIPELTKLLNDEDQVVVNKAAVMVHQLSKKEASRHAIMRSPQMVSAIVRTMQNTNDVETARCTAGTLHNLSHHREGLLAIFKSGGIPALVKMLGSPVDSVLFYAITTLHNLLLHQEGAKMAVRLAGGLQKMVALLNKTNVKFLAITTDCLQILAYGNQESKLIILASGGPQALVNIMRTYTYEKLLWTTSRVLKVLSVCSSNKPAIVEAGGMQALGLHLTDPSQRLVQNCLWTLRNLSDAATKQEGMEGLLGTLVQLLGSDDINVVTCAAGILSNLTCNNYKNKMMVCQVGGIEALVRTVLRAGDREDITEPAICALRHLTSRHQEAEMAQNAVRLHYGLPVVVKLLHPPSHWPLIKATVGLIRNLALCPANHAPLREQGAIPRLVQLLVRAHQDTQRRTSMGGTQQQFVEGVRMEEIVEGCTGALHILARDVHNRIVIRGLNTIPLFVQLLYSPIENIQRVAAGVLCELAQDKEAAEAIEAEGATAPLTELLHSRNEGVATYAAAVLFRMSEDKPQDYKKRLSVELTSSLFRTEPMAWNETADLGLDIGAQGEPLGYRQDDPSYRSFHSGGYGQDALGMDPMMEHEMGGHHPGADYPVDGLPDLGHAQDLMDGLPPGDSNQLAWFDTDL
Nature of the assay: AlphaScreen competitive inhibition assay of the β-catenin/BCL9 PPI. The format is binding. The following applies: mean ± SD, triplicate, Ki derived from IC50 (Nikolovska-Coleska method). The protocol:
AlphaScreen competitive inhibition assays. For the competitive inhibition assays of the β-catenin/BCL9 PPI, the negative control (equivalent to 0% inhibition) refers to 5.0 nM of biotinylated BCL9, 40 nM of His6-tagged β-catenin, and 10 μg/mL of donor and acceptor beads in a final volume of 25 μL assay buffer, but no tested inhibitor present. The positive control (equivalent to 100% inhibition) refers to 5.0 nM of biotinylated BCL9 and 10 μg/mL of donor and acceptor beads in a final volume of 25 μL assay buffer.
For the β-catenin/BCL9 assay, 5 nM of biotinylated BCL9 and 40 nM of His6-tagged β-catenin were incubated in assay buffer at 4° C. for 30 min. Different concentrations of the tested inhibitor were added and incubated in 20 μL assay buffer at 4° C. for another 1 h. All of the above assay plates were covered and gently mixed on an orbital shaker. The donor and acceptor beads were then added to the plates to a final concentration of 10 μg/mL in 25 μL assay buffer. The mixture was incubated for 1 h at 4° C. before detection. The IC50 value was determined by nonlinear least-square analysis of GraphPad Prism 5.0. The Ki values were derived from the IC50 values using a method reported by Nikolovska-Coleska et al (Nikolovska-Coleska, Z.; Wang, R.; Fang, X.; Pan, H.; Tomita, Y.; Li, P.; Roller, P. P.; Krajewski, K.; Saito, N. G.; Stuckey, J. A.; Wang, S. Development and optimization of a binding assay for the XIAP BIR3 domain using fluorescence polarization. Anal. Biochem. 2004, 332, 261-273). The assays were conducted under the conditions required by Nikolovska-Coleska et al.'s equation for determining the Ki values. All of the experiments were performed in triplicate. The results were expressed as mean±standard deviation.

Where [1] appears, read: Example 2 compounds, experiment 1, read-out: Ki (μM ± SD) experiment 1.
Setting [2] is: Example 2 compounds, experiment 2, read-out: Ki (μM ± SD) experiment 2.
Setting [3] is: Example 1 compounds, experiment 3, read-out: Ki (μM ± SD) experiment 3.
Where [4] appears, read: Example 1 compounds, experiment 4, read-out: Ki (μM ± SD) experiment 4.

Counter-ions that a name gives are not always drawn. Like-named read-outs stand apart in the source and are kept apart here.

`O=C(c1ccc(O[C@H]2CCNC2)c(C2CCCCC2)c1)N1CCC(Oc2cc(F)cc(N3CCNCC3)c2)CC1` [Compound 1, (S)-(3-cyclohexyl-4-(pyrrolidin-3-yloxy)phenyl) (4-(3-fluoro-5-(piperazin-1-yl)phenoxy)piperidin-1-yl) methanone dihydrochloride]: the Ki came out at 12.3 ± 1.74 µM under setting [1] and 25.4 ± 2.43 µM under setting [2].

`O=C(c1ccc(O[C@H]2CCNC2)c(C2CCCCC2)c1)N1CCC(Oc2cc(F)cc(N3CCNCC3=O)c2)CC1` [Compound 2, (S)-1-(3-((1-(3-cyclohexyl-4-(pyrrolidin-3-yloxy)benzoyl)piperidin-4-yl)oxy)-5-fluorophenyl) piperazin-2-one dihydrochloride]: the Ki runs as follows: under setting [1], 496 ± 39.7 µM; under setting [2], above 90 µM.

Take `NCc1cn(Cc2cc(F)cc(OC3CCN(C(=O)c4ccc(O[C@H]5CCNC5)c(C5CCCCC5)c4)CC3)c2)nn1` [Compound 3, (S)-(4-(3-((4-(aminomethyl)-1H-1,2,3-triazol-1-yl)methyl)-5-fluorophenoxy)piperidin-1-yl) (3-cyclohexyl-4-(pyrrolidin-3-yloxy)phenyl) methanone dihydrochloride]: the Ki is, setting by setting: under setting [1], 132 ± 9.82 µM; under setting [2], 124 ± 13.4 µM.

In the case of `CN(C)Cc1cn(Cc2cc(F)cc(OC3CCN(C(=O)c4ccc(O[C@H]5CCNC5)c(C5CCCCC5)c4)CC3)c2)nn1` [Compound 4, (S)-(3-cyclohexyl-4-(pyrrolidin-3-yloxy)phenyl) (4-(3-((4-((dimethylamino)methyl)-1H-1,2,3-triazol-1-yl)methyl)-5-fluorophenoxy)piperidin-1-yl) methanone dihydrochloride], the Ki under setting [1] was 41.4 ± 4.33 µM.

Regarding `NCCC(=O)Nc1cc(F)cc(OC2CCN(C(=O)c3ccc(OC4CCNC4)c(C4CCCCC4)c3)CC2)c1` (stereo not drawn) [Compound 5, 3-amino-N-(3-((1-(3-cyclohexyl-4-(pyrrolidin-3-yloxy)benzoyl)piperidin-4-yl)oxy)-5-fluorophenyl)propanamide dihydrochloride], the Ki is, setting by setting: under setting [1], 24.4 ± 3.18 µM; under setting [2], 25.9 ± 2.45 µM.

Consider `NCCCC(=O)Nc1cc(F)cc(OC2CCN(C(=O)c3ccc(OC4CCNC4)c(C4CCCCC4)c3)CC2)c1` (stereo not drawn) [Compound 6, 4-amino-N-(3-((1-(3-cyclohexyl-4-(pyrrolidin-3-yloxy)benzoyl)piperidin-4-yl)oxy)-5-fluorophenyl)butanamide dihydrochloride], for which the inhibition constant (Ki) is, setting by setting: under setting [1], 56.9 ± 8.34 µM; under setting [2], 24.2 ± 2.7 µM.

`NCCC(=O)NCc1cc(F)cc(OC2CCN(C(=O)c3ccc(O[C@H]4CCNC4)c(C4CCCCC4)c3)CC2)c1` [Compound 7, 3-Amino-N-(3-((1-(3-cyclohexyl-4-(pyrrolidin-3-yloxy)benzoyl)piperidin-4-yl)oxy)-5-fluorobenzyl) propanamide dihydrochloride]: the Ki is, setting by setting: under setting [1], 84.7 ± 11.8 µM; under setting [2], 125 ± 13.2 µM.

Consider `CC(C)(CN)C(=O)NCc1cc(F)cc(OC2CCN(C(=O)c3ccc(O[C@H]4CCNC4)c(C4CCCCC4)c3)CC2)c1` [Compound 8, (S)-3-amino-N-(3-((1-(3-cyclohexyl-4-(pyrrolidin-3-yloxy)benzoyl)piperidin-4-yl)oxy)-5-fluorobenzyl)-2,2-dimethylpropanamide dihydrochloride], for which the Ki came to 162 ± 19.6 µM under setting [1] and 162 ± 17.4 µM under setting [2].

For `CNC(=O)C1CN(C(=O)c2cc(F)cc(NC(C)=O)c2)CCN1C(=O)c1ccc(O[C@H]2CCNC2)c(C2CCCCC2)c1` (stereo partly drawn) [Compound 17, 4-(3-Acetamido-5-fluorobenzoyl)-1-(3-cyclohexyl-4-(((S)-pyrrolidin-3-yl)oxy)benzoyl)-N-methylpiperazine-2-carboxamide trifluoroacetate], the Ki under setting [3] was found to be 200 ± 20 µM and the Ki under setting [4] turned out to be 140 ± 17 µM.

As for `CC(=O)Nc1cc(F)cc(C(=O)N2CCN(C(=O)c3ccc(O[C@H]4CCNC4)c(C4CCCCC4)c3)C(C(=O)N(C)C)C2)c1` (stereo partly drawn) [Compound 18, 4-(3-Acetamido-5-fluorobenzoyl)-1-(3-cyclohexyl-4-(((S)-pyrrolidin-3-yl)oxy)benzoyl)-N,N-dimethylpiperazine-2-carboxamide trifluoroacetate], the Ki reads like this: under setting [3], 73 µM; under setting [4], 150 ± 17 µM.

`CCNC(=O)C1CN(C(=O)c2cc(F)cc(NC(C)=O)c2)CCN1C(=O)c1ccc(O[C@H]2CCNC2)c(C2CCCCC2)c1` (stereo partly drawn) [Compound 19, 4-(3-Acetamido-5-fluorobenzoyl)-1-(3-cyclohexyl-4-(((S)-pyrrolidin-3-yl)oxy)benzoyl)-N-ethylpiperazine-2-carboxamide trifluoroacetate]: the Ki under setting [3] is 110 ± 16 µM and the Ki under setting [4] was determined as 240 ± 27 µM.

On to `CCN(C)C(=O)C1CN(C(=O)c2cc(F)cc(NC(C)=O)c2)CCN1C(=O)c1ccc(O[C@H]2CCNC2)c(C2CCCCC2)c1` (stereo partly drawn) [Compound 20, 4-(3-Acetamido-5-fluorobenzoyl)-1-(3-cyclohexyl-4-(((S)-pyrrolidin-3-yl)oxy)benzoyl)-N-ethyl-N-methylpiperazine-2-carboxamide trifluoroacetate], for which the Ki was 190 ± 18 µM under setting [3] and 170 ± 29 µM under setting [4].

Turning to `CC(=O)Nc1cc(F)cc(C(=O)N2CCN(C(=O)c3ccc(O[C@H]4CCNC4)c(C4CCCCC4)c3)C(C(=O)NC(C)C)C2)c1` (stereo partly drawn) [Compound 21, 4-(3-Acetamido-5-fluorobenzoyl)-1-(3-cyclohexyl-4-(((S)-pyrrolidin-3-yl)oxy)benzoyl)-N-isopropylpiperazine-2-carboxamide trifluoroacetate], the Ki runs as follows: under setting [3], 410 ± 41 µM; under setting [4], 700 ± 73 µM.

`CC(=O)Nc1cc(F)cc(C(=O)N2CCN(C(=O)c3ccc(O[C@H]4CCNC4)c(C4CCCCC4)c3)C(C(=O)N(C)C(C)C)C2)c1` (stereo partly drawn) [Compound 22, 4-(3-Acetamido-5-fluorobenzoyl)-1-(3-cyclohexyl-4-(((S)-pyrrolidin-3-yl)oxy)benzoyl)-N-isopropyl-N-methylpiperazine-2-carboxamide trifluoroacetate]: the Ki reads like this: under setting [3], above 1000 µM; under setting [4], above 1000 µM.

In the case of `CC(=O)Nc1cc(F)cc(C(=O)N2CCN(C(=O)c3ccc(O[C@H]4CCNC4)c(C4CCCCC4)c3)C(C(=O)NCC(C)C)C2)c1` (stereo partly drawn) [Compound 23, 4-(3-Acetamido-5-fluorobenzoyl)-1-(3-cyclohexyl-4-(((S)-pyrrolidin-3-yl)oxy)benzoyl)-N-isobutylpiperazine-2-carboxamide trifluoroacetate], the Ki by setting is: under setting [3], above 1000 µM; under setting [4], above 1000 µM.

Consider `CC(=O)Nc1cc(F)cc(C(=O)N2CCN(C(=O)c3ccc(O[C@H]4CCNC4)c(C4CCCCC4)c3)C(C(=O)NCCC(C)C)C2)c1` (stereo partly drawn) [Compound 24, 4-(3-Acetamido-5-fluorobenzoyl)-1-(3-cyclohexyl-4-(((S)-pyrrolidin-3-yl)oxy)benzoyl)-N-isopentylpiperazine-2-carboxamide trifluoroacetate], for which the Ki stood at 700 ± 130 µM under setting [3] and 540 ± 71 µM under setting [4].

Turning to `CC(=O)Nc1cc(F)cc(C(=O)N2CCN(C(=O)c3ccc(O[C@H]4CCNC4)c(C4CCCCC4)c3)C(C(=O)NC3CCCCC3)C2)c1` (stereo partly drawn) [Compound 25, 4-(3-Acetamido-5-fluorobenzoyl)-N-cyclohexyl-1-(3-cyclohexyl-4-(((S)-pyrrolidin-3-yl)oxy)benzoyl) piperazine-2-carboxamide trifluoroacetate], the Ki was 390 ± 78 µM under setting [3] and above 1000 µM under setting [4].
